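Grown in 96-well plates, cells were treated for 48 hours with each compound at five concentrations. Insufficient inhibition: endpoint recorded as highest concentration tested. GI50 is the concentration that inhibits growth by half.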 Calls of active or inactive are those of the source. No stated cut-off is given here; in the data, active = GI50 up to about 1.1 µM and inactive = higher.
Assays:
Experiment in all cases: NCI anticancer screen, dose series, 48 h
ACHN = tested on: ACHN
HL-60 = tested on: HL-60
Hs-578T = tested on: Hs-578T
K562 = tested on: K562
LOX IMVI = tested on: LOX IMVI
MDA-MB-231 = tested on: MDA-MB-231
MDA-MB-435 = tested on: MDA-MB-435
MOLT-4 = tested on: MOLT-4
NCI-H226 = tested on: NCI-H226
NCI-H460 = tested on: NCI-H460
OVCAR-4 = tested on: OVCAR-4
OVCAR-5 = tested on: OVCAR-5
RPMI-8226 = tested on: RPMI-8226
RXF 393 = tested on: RXF 393
SN12C = tested on: SN12C
SR = tested on: SR
U-251 = tested on: U-251
UACC-62 = tested on: UACC-62
A498 = tested on: A498

| SMILES | GI50 (ACHN) | GI50 (HL-60) | GI50 (Hs-578T) | GI50 (K562) | GI50 (LOX IMVI) | GI50 (MDA-MB-231) | GI50 (MDA-MB-435) | GI50 (MOLT-4) | GI50 (NCI-H226) | GI50 (NCI-H460) | GI50 (OVCAR-4) | GI50 (OVCAR-5) | GI50 (RPMI-8226) | GI50 (RXF 393) | GI50 (SN12C) | GI50 (SR) | GI50 (U-251) | GI50 (UACC-62) | GI50 (A498) |
| --- | --- | --- | --- | --- | --- | --- | --- | --- | --- | --- | --- | --- | --- | --- | --- | --- | --- | --- | --- |
| COc1ccc2c(c1O)[C@@]13CCCC=C1[C@@H](C2)N(C)CC3 | > 100 µM (inactive) | 21.4 µM (inactive) | 42.5 µM (inactive) | 21.3 µM (inactive) | 41.4 µM (inactive) | 77.6 µM (inactive) | 36.6 µM (inactive) | 44.3 µM (inactive) | 31.6 µM (inactive) | > 100 µM (inactive) | > 100 µM (inactive) | > 100 µM (inactive) | 29.3 µM (inactive) | > 100 µM (inactive) | > 100 µM (inactive) | 25.6 µM (inactive) | > 100 µM (inactive) | > 100 µM (inactive) |  |
| COc1ccc2c(c1C)C(=O)C(O)(CC=C(C)C)O2 (centres undefined) | > 100 µM (inactive) | > 100 µM (inactive) | > 100 µM (inactive) | > 100 µM (inactive) | > 100 µM (inactive) | > 100 µM (inactive) | > 100 µM (inactive) | > 100 µM (inactive) | > 100 µM (inactive) | > 100 µM (inactive) |  | > 100 µM (inactive) | > 100 µM (inactive) |  | > 100 µM (inactive) | > 100 µM (inactive) | > 100 µM (inactive) | > 100 µM (inactive) | > 100 µM (inactive) |
| COc1ccc2c(c1OC(C)=O)C1=CC(=O)CCC13CCNC3C2 (centres undefined) | > 100 µM (inactive) | > 100 µM (inactive) | > 100 µM (inactive) | > 100 µM (inactive) | > 100 µM (inactive) | > 100 µM (inactive) | > 100 µM (inactive) | > 100 µM (inactive) | > 100 µM (inactive) | > 100 µM (inactive) | > 100 µM (inactive) | > 100 µM (inactive) | > 100 µM (inactive) | > 100 µM (inactive) | > 100 µM (inactive) | > 100 µM (inactive) | > 100 µM (inactive) | > 100 µM (inactive) |  |
| C/C=C(/C)C(=O)O[C@H]1C[C@@H]2[C@@H](O)c3occ(C)c3C[C@]2(C)[C@@H](C)C1 | 17.1 µM (inactive) | 9.93 µM (inactive) | 28.8 µM (inactive) | 10.4 µM (inactive) | 17.5 µM (inactive) | 15.5 µM (inactive) | 16.5 µM (inactive) | 15.2 µM (inactive) | 14.2 µM (inactive) | 22.4 µM (inactive) | 18 µM (inactive) | 19.6 µM (inactive) | 25.6 µM (inactive) | 14.4 µM (inactive) | 14.1 µM (inactive) | 14.2 µM (inactive) | 14.8 µM (inactive) | 13.4 µM (inactive) |  |
| C=CCN1C(=O)/C(=C\c2cc(C(C)(C)C)c(O)c(C(C)(C)C)c2)NC1=S | 26.5 µM (inactive) | 0.239 µM (active) | 48.2 µM (inactive) | 19.9 µM (inactive) | 16.4 µM (inactive) | 15.9 µM (inactive) | 24 µM (inactive) | 30.7 µM (inactive) | 29.3 µM (inactive) | 15.3 µM (inactive) | 19.3 µM (inactive) | 31.3 µM (inactive) | 7.87 µM (inactive) |  | 23.1 µM (inactive) | 21.1 µM (inactive) | 14.3 µM (inactive) | 15.8 µM (inactive) | 25.2 µM (inactive) |
| CCCCCCCCCCCCOP(=O)(O)OP(=O)(O)OCC1OC(n2ccc(N)nc2=O)CC1O (centres undefined) | > 100 µM (inactive) | > 100 µM (inactive) | > 100 µM (inactive) | > 100 µM (inactive) | > 100 µM (inactive) | > 100 µM (inactive) | > 100 µM (inactive) | > 100 µM (inactive) | > 100 µM (inactive) | > 100 µM (inactive) | > 100 µM (inactive) | > 100 µM (inactive) | > 100 µM (inactive) | > 100 µM (inactive) | > 100 µM (inactive) |  | > 100 µM (inactive) | > 100 µM (inactive) | > 100 µM (inactive) |
| Cc1ccc(S(=O)(=O)Oc2cc(N)c3c(n2)CCC3)cc1 | > 100 µM (inactive) | 43.2 µM (inactive) | > 100 µM (inactive) | 67 µM (inactive) | > 100 µM (inactive) | > 100 µM (inactive) | > 100 µM (inactive) | 33.7 µM (inactive) | 36.8 µM (inactive) | > 100 µM (inactive) | 34.4 µM (inactive) | > 100 µM (inactive) | 24.3 µM (inactive) | > 100 µM (inactive) | > 100 µM (inactive) |  | > 100 µM (inactive) | 97.5 µM (inactive) | 69.2 µM (inactive) |
| N#CC1=C(N)Nc2nc3ccccc3n2C1c1ccccc1 (centres undefined) | 23.3 µM (inactive) | > 100 µM (inactive) | 24.7 µM (inactive) | 59.7 µM (inactive) | 62.7 µM (inactive) | 45.9 µM (inactive) | 45.6 µM (inactive) | 49 µM (inactive) |  | 45.7 µM (inactive) |  | > 100 µM (inactive) | 6.41 µM (inactive) | 16.1 µM (inactive) | > 100 µM (inactive) | 83.6 µM (inactive) | 42.9 µM (inactive) | 56.6 µM (inactive) | 21.6 µM (inactive) |
| O=c1sc2c(s1)-c1sc(=O)sc1SS2 | > 100 µM (inactive) | > 100 µM (inactive) | 81.7 µM (inactive) | 55.5 µM (inactive) | > 60.4 µM (inactive) | > 100 µM (inactive) | > 100 µM (inactive) | > 61 µM (inactive) | 38.6 µM (inactive) | > 100 µM (inactive) | > 100 µM (inactive) | 34.1 µM (inactive) | > 100 µM (inactive) | > 100 µM (inactive) | > 100 µM (inactive) |  | > 31.6 µM (inactive) | > 100 µM (inactive) | > 42.9 µM (inactive) |
| O=C(/C(=N\Nc1ccc([N+](=O)[O-])cc1[N+](=O)[O-])NC12CC3CC(CC(C3)C1)C2)C(Br)C(=O)c1ccccc1 (centres undefined) | 3.18 µM (inactive) | 2.94 µM (inactive) | 4.67 µM (inactive) | 2.8 µM (inactive) | 2.43 µM (inactive) | 2.27 µM (inactive) | 3.52 µM (inactive) | 3.52 µM (inactive) | 2.52 µM (inactive) | 3.61 µM (inactive) | 2.77 µM (inactive) | 5.4 µM (inactive) | 1.84 µM (inactive) | 2.78 µM (inactive) | 3.12 µM (inactive) |  | 2.85 µM (inactive) | 3.38 µM (inactive) | 2.71 µM (inactive) |
| COc1cc(O)c2c(c1)C(=O)c1cc3c(c(O)c1C2=O)C(OC1OC(C)C(OC)C(O)C1OC)C(OC)C(C)(O)C3=O (centres undefined) | 2.14 µM (inactive) | 2.79 µM (inactive) | 8.47 µM (inactive) | 3.58 µM (inactive) | 2.7 µM (inactive) | 4.44 µM (inactive) | 3.8 µM (inactive) | 3.14 µM (inactive) | 2.59 µM (inactive) | 2.72 µM (inactive) | 4.03 µM (inactive) | 16.1 µM (inactive) | 1.29 µM (inactive) |  |  | 1.64 µM (inactive) | 5.33 µM (inactive) |  | 5.53 µM (inactive) |
| O=C1Nc2ccccc2/C1=N/NC(=S)NCc1ccccn1 | 0.2 µM (active) | < 0.01 µM (active) | 6.14 µM (inactive) | < 0.01 µM (active) | 0.371 µM (active) | 0.0721 µM (active) | 0.931 µM (active) | < 0.01 µM (active) | 0.604 µM (active) | 0.172 µM (active) | 1.33 µM (inactive) | 10.5 µM (inactive) | < 0.01 µM (active) |  | 1.27 µM (inactive) | < 0.01 µM (active) | 0.0724 µM (active) | 0.341 µM (active) | 2.25 µM (inactive) |
| Cc1coc2c1CC1OC1(C)CCC1OC1(C)C2 (centres undefined) | > 100 µM (inactive) | > 100 µM (inactive) | > 100 µM (inactive) | > 100 µM (inactive) | > 100 µM (inactive) | > 100 µM (inactive) | > 100 µM (inactive) | > 100 µM (inactive) | > 100 µM (inactive) | > 100 µM (inactive) | > 100 µM (inactive) | > 100 µM (inactive) | > 100 µM (inactive) |  | > 100 µM (inactive) | > 100 µM (inactive) | > 100 µM (inactive) | > 100 µM (inactive) | > 100 µM (inactive) |
| COc1ccc(/C=C2\NC(=S)N(CN3CCOCC3)C2=O)cc1 | > 100 µM (inactive) |  | > 100 µM (inactive) | > 100 µM (inactive) | > 100 µM (inactive) | > 100 µM (inactive) | > 100 µM (inactive) | > 100 µM (inactive) | > 100 µM (inactive) |  | > 100 µM (inactive) | > 100 µM (inactive) | > 100 µM (inactive) |  | > 100 µM (inactive) | > 100 µM (inactive) | > 100 µM (inactive) | > 100 µM (inactive) | 26.1 µM (inactive) |
| O=C(/C=C/c1csc(-c2ccccc2)n1)NCc1ccc(C(=O)NCCc2ccccc2)cc1 | 19.3 µM (inactive) |  | 7.05 µM (inactive) | > 100 µM (inactive) | 79.4 µM (inactive) | 5.38 µM (inactive) | > 100 µM (inactive) | > 100 µM (inactive) | 25.5 µM (inactive) | 55.3 µM (inactive) | 24.5 µM (inactive) | 73.3 µM (inactive) | > 100 µM (inactive) | 2.7 µM (inactive) | 44.9 µM (inactive) | > 100 µM (inactive) | 5.16 µM (inactive) | 31.8 µM (inactive) | 19.8 µM (inactive) |
